Earlier results in PMC9289467, “A Novel Multifunctional 5,6-Dimethoxy-Indanone-Chalcone-Carbamate Hybrids Alleviates Cognitive Decline in Alzheimer’s Disease by Dual Inhibition of Acetylcholinesterase and Inflammation” (Frontiers in Aging Neuroscience, 2022).

Legend:
[1] = tested on: cerebrospinal fluid (CSF) Aβ; conditions: chronic treatment, patients with AD; ref Nitsch et al., 2000; cited from earlier work
[2] = tested on: AChE-induced Aβ fibrillization; conditions: PAS inhibitors; ref Inestrosa et al., 1996; cited from earlier work
APP processing = conditions: rat brains; ref Farber et al., 1995; cited from earlier work

CC1OC2(CS1)CN1CCC2CC1 (centres unmarked) [AF102B]
cerebrospinal fluid (CSF) Aβ levels [1]: markedly lowered

CC[N+](C)(CC)CCC[n+]1c(-c2ccccc2)c2cc(N)ccc2c2ccc(N)cc21 [Propidium]
effect of AChE on Aβ fibril aggregation process [2]: capable of preventing

CNC(=O)Oc1ccc2c(c1)[C@]1(C)CCN(C)[C@@H]1N2C [physostigmine]
cerebrospinal fluid (CSF) Aβ levels [1]: did not show a significant effect | APP processing (APP processing): did not change APP processing

fasciculin
effect of AChE on Aβ fibril aggregation process [2]: capable of preventing
